# Source: the SangsterLogP compilation
# Assay: method code SF, from DOI: 10.1080/10826079508010421
# Conditions: pH 11.0
row,SMILES,logD
1,NC1=NCC(COc2ccccc2)O1 (stereo not given),1.27
2,COc1ccccc1OCC1CN=C(N)O1 (stereo not given),0.85
3,NC1=NCC(COc2ccccc2Cl)O1 (stereo not given),1.77
4,COc1ccc(OCC2CN=C(N)O2)cc1 (stereo not given),1.26
5,NC1=NCC(COc2ccc([N+](=O)[O-])cc2)O1 (stereo not given),1.17
6,Cc1ccccc1OCC1CN=C(N)O1 (stereo not given),1.69
7,NC1=NCC(COc2ccc(Cl)cc2)O1 (stereo not given),2
8,NC1=NCC(COc2ccc(N3CCOCC3)cc2)O1 (stereo not given),0.6
9,CCOc1ccccc1OCC1CN=C(N)O1 (stereo not given),1.24
10,Cc1ccc(OCC2CN=C(N)O2)cc1 (stereo not given),1.79
